Test results: PubChem BioAssay (NCI)
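Grown in 96-well plates, cells were treated for 48 hours with each compound at five concentrations. Insufficient inhibition: endpoint recorded as highest concentration tested. TGI: concentration producing complete growth inhibition.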

Key:
Test in all cases: NCI-60 cell line screen, 48 h
786-0 renal = system: 786-0 renal
A498 renal = system: A498 renal
A549 NSCLC = system: A549 NSCLC
ACHN renal = system: ACHN renal
BT-549 breast = system: BT-549 breast
CAKI-1 renal = system: CAKI-1 renal
CCRF-CEM leukemia = system: CCRF-CEM leukemia
COLO 205 colon = system: COLO 205 colon
DU-145 prostate = system: DU-145 prostate
EKVX NSCLC = system: EKVX NSCLC
HCC-2998 colon = system: HCC-2998 colon
HCT-116 colon = system: HCT-116 colon
HCT-15 colon = system: HCT-15 colon
HOP-62 NSCLC = system: HOP-62 NSCLC
HS 578T breast = system: HS 578T breast
HT29 colon = system: HT29 colon
IGROV1 ovarian = system: IGROV1 ovarian
K-562 leukemia = system: K-562 leukemia
KM12 colon = system: KM12 colon
LOX IMVI melanoma = system: LOX IMVI melanoma
M14 melanoma = system: M14 melanoma
MALME-3M melanoma = system: MALME-3M melanoma
MCF7 breast = system: MCF7 breast
MDA-MB-231 breast = system: MDA-MB-231 breast
MDA-MB-435 = system: MDA-MB-435
MDA-N = system: MDA-N
MOLT-4 leukemia = system: MOLT-4 leukemia
NCI-H226 lung = system: NCI-H226 lung
NCI-H460 lung = system: NCI-H460 lung
NCI-H522 lung = system: NCI-H522 lung
NCI/ADR-RES ovarian = system: NCI/ADR-RES ovarian
OVCAR-3 ovarian = system: OVCAR-3 ovarian
OVCAR-4 ovarian = system: OVCAR-4 ovarian
OVCAR-5 ovarian = system: OVCAR-5 ovarian
OVCAR-8 ovarian = system: OVCAR-8 ovarian
PC-3 prostate = system: PC-3 prostate
RPMI-8226 leukemia = system: RPMI-8226 leukemia
RXF 393 renal = system: RXF 393 renal
SF-268 CNS = system: SF-268 CNS
SF-295 CNS = system: SF-295 CNS
SK-MEL-2 melanoma = system: SK-MEL-2 melanoma
SK-MEL-28 melanoma = system: SK-MEL-28 melanoma
SK-MEL-5 melanoma = system: SK-MEL-5 melanoma
SK-OV-3 ovarian = system: SK-OV-3 ovarian
SN12C renal = system: SN12C renal
SNB-19 CNS = system: SNB-19 CNS
SNB-75 CNS = system: SNB-75 CNS
SR leukemia = system: SR leukemia
SW-620 colon = system: SW-620 colon
T-47D breast = system: T-47D breast
TK-10 renal = system: TK-10 renal
U251 CNS = system: U251 CNS
UACC-257 melanoma = system: UACC-257 melanoma
UACC-62 melanoma = system: UACC-62 melanoma
UO-31 renal = system: UO-31 renal
HOP-92 NSCLC = system: HOP-92 NSCLC
NCI-H23 lung = system: NCI-H23 lung
SF-539 CNS = system: SF-539 CNS

For `S=C1c2ccc(Cl)cc2-n2cnnc2C2CSCN12` (stereo unspecified), the TGI (786-0 renal) was over 100 µM, the TGI (A498 renal) was over 100 µM and the TGI (A549 NSCLC) was over 100 µM. It also gave a TGI (ACHN renal) of over 100 µM, a TGI (BT-549 breast) of over 100 µM and a TGI (CAKI-1 renal) of over 100 µM. The TGI (CCRF-CEM leukemia) was over 100 µM, the TGI (COLO 205 colon) was over 100 µM and the TGI (DU-145 prostate) was over 100 µM. It also gave a TGI (EKVX NSCLC) of over 100 µM, a TGI (HCC-2998 colon) of over 100 µM and a TGI (HCT-116 colon) of over 100 µM. For the same compound, the TGI (HCT-15 colon) was over 100 µM, the TGI (HOP-62 NSCLC) was over 100 µM and the TGI (HS 578T breast) was over 100 µM. The TGI (HT29 colon) was over 100 µM, the TGI (IGROV1 ovarian) was over 100 µM and the TGI (K-562 leukemia) was 27.7 µM. It also gave a TGI (KM12 colon) of over 100 µM, a TGI (LOX IMVI melanoma) of over 100 µM and a TGI (M14 melanoma) of over 100 µM. The TGI (MALME-3M melanoma) was over 100 µM, the TGI (MCF7 breast) was over 100 µM and the TGI (MDA-MB-231 breast) was over 100 µM. For the same compound, the TGI (MDA-MB-435) was over 100 µM, the TGI (MDA-N) was over 100 µM and the TGI (MOLT-4 leukemia) was over 100 µM. The TGI (NCI-H226 lung) was over 100 µM, the TGI (NCI-H460 lung) was over 100 µM and the TGI (NCI-H522 lung) was over 100 µM. For the same compound, the TGI (NCI/ADR-RES ovarian) was over 100 µM, the TGI (OVCAR-3 ovarian) was over 100 µM and the TGI (OVCAR-4 ovarian) was over 100 µM. The TGI (OVCAR-5 ovarian) was over 100 µM, the TGI (OVCAR-8 ovarian) was over 100 µM and the TGI (PC-3 prostate) was over 100 µM. For the same compound, the TGI (RPMI-8226 leukemia) was over 100 µM, the TGI (RXF 393 renal) was over 100 µM and the TGI (SF-268 CNS) was over 100 µM. The TGI (SF-295 CNS) was over 100 µM, the TGI (SK-MEL-2 melanoma) was over 100 µM and the TGI (SK-MEL-28 melanoma) was over 100 µM. For the same compound, the TGI (SK-MEL-5 melanoma) was over 100 µM, the TGI (SK-OV-3 ovarian) was over 100 µM and the TGI (SN12C renal) was over 100 µM. It also gave a TGI (SNB-19 CNS) of over 100 µM, a TGI (SNB-75 CNS) of over 100 µM and a TGI (SR leukemia) of over 100 µM. It also gave a TGI (SW-620 colon) of over 100 µM, a TGI (T-47D breast) of over 100 µM and a TGI (TK-10 renal) of over 100 µM. It also gave a TGI (U251 CNS) of over 100 µM, a TGI (UACC-257 melanoma) of over 100 µM and a TGI (UACC-62 melanoma) of over 100 µM. For the same compound, the TGI (UO-31 renal) was over 100 µM.

In the case of `CCc1n[nH]c(=O)n1CCCCCCCCCCCCn1c(CC)n[nH]c1=O`, the TGI (786-0 renal) is reported as over 100 µM, the TGI (A498 renal) is reported as over 100 µM and the TGI (A549 NSCLC) is reported as over 100 µM. The TGI (ACHN renal) was over 100 µM, the TGI (BT-549 breast) was 77.5 µM and the TGI (CAKI-1 renal) was over 100 µM. For the same compound, the TGI (CCRF-CEM leukemia) was 64.3 µM, the TGI (COLO 205 colon) was 75.5 µM and the TGI (EKVX NSCLC) was over 100 µM. The TGI (HCC-2998 colon) was over 100 µM, the TGI (HCT-116 colon) was over 100 µM and the TGI (HCT-15 colon) was over 100 µM. It also gave a TGI (HOP-62 NSCLC) of over 100 µM, a TGI (HOP-92 NSCLC) of over 100 µM and a TGI (HS 578T breast) of over 100 µM. It also gave a TGI (HT29 colon) of over 100 µM, a TGI (IGROV1 ovarian) of over 100 µM and a TGI (K-562 leukemia) of over 100 µM. For the same compound, the TGI (KM12 colon) was over 100 µM, the TGI (LOX IMVI melanoma) was 99 µM and the TGI (M14 melanoma) was 95.8 µM. It also gave a TGI (MALME-3M melanoma) of 76 µM, a TGI (MCF7 breast) of over 100 µM and a TGI (MDA-MB-231 breast) of over 100 µM. For the same compound, the TGI (MDA-MB-435) was 76.3 µM, the TGI (MDA-N) was over 100 µM and the TGI (MOLT-4 leukemia) was 67.7 µM. For the same compound, the TGI (NCI-H226 lung) was over 100 µM, the TGI (NCI-H23 lung) was 94.4 µM and the TGI (NCI-H460 lung) was 71.9 µM. It also gave a TGI (NCI-H522 lung) of over 100 µM, a TGI (NCI/ADR-RES ovarian) of over 100 µM and a TGI (OVCAR-3 ovarian) of over 100 µM. It also gave a TGI (OVCAR-4 ovarian) of over 100 µM, a TGI (OVCAR-5 ovarian) of over 100 µM and a TGI (OVCAR-8 ovarian) of over 100 µM. It also gave a TGI (PC-3 prostate) of over 100 µM, a TGI (RPMI-8226 leukemia) of over 100 µM and a TGI (RXF 393 renal) of over 100 µM. For the same compound, the TGI (SF-268 CNS) was over 100 µM, the TGI (SF-295 CNS) was over 100 µM and the TGI (SF-539 CNS) was over 100 µM. For the same compound, the TGI (SK-MEL-2 melanoma) was over 100 µM, the TGI (SK-MEL-5 melanoma) was 32.8 µM and the TGI (SK-OV-3 ovarian) was over 100 µM. For the same compound, the TGI (SN12C renal) was over 100 µM, the TGI (SNB-19 CNS) was over 100 µM and the TGI (SNB-75 CNS) was 80.6 µM. The TGI (SR leukemia) was over 100 µM, the TGI (SW-620 colon) was over 100 µM and the TGI (T-47D breast) was 82.9 µM. It also gave a TGI (TK-10 renal) of over 100 µM, a TGI (U251 CNS) of 86.4 µM and a TGI (UACC-257 melanoma) of 40.2 µM. It also gave a TGI (UACC-62 melanoma) of 61.3 µM and a TGI (UO-31 renal) of over 100 µM.
